{
  "source": "patent US20040229960A1",
  "about": "“Compositions and methods of administering tubulin binding agents for the treatment of ocular diseases” (priority 2001, published 2004)",
  "key": {"[1]": {"experiment": "Intraocular irritation following intravitreal injection", "assay_type": "in vivo, rabbits", "details": "for Mean cell counts in the vitreous fluid (white blood cells): 0.2 ml intravitreal, about 48 h, <=200 acceptable", "experimental": "The test article, CA4P, was evaluated for the potential to cause intraocular irritation following intravitreal injection in rabbits. Following general anesthesia, a 0.2 ml dose of CA4P was administered to the right eyes of eight rabbits. A 0.2 ml dose of 0.9% sodium chloride USP solution was administered to the left eyes of the rabbits to serve as a negative control. Four different concentrations of CA4P were tested. Each of the four concentrations (0.1 mg/ml, 1.0 mg/ml, 10 mg/ml and 100 mg/ml) were dosed to the right eyes of two rabbits. Approximately 48 hours after the treatment, the eyes were examined with a biomicroscopic slit-lamp and an indirect ophthalmoscope. The scores were recorded and the rabbits were euthanized. Immediately after euthanasia, samples of vitreous fluid were drawn and white blood cell counts were determined with a hemacytometer. Counts less than or equal to 200 cells/mm^3 were considered to be acceptable."}, "[2]": {"system": "pathological myopia", "experiment": "Human patient with pathological myopia, phase I/II study", "assay_type": "in vivo", "description": "A person was originally examined on Day One after complaining of visual obstructions in their left eye. The patient had received ocular lens implants in both eyes approximately 2 years earlier to correct for myopia. The patient was diagnosed with pathological myopia (also known as proliferative myopathy and myopic macular degeneration) and received a total of four treatments of Photodynamic Therapy (PDT, Visudyne™) in the left eye over the course of the next 8 months. […] In June 2003, the patient was diagnosed with pathological myopia in the right eye as well.\nAbout 3 months later, the patient was enrolled in an open-label, pilot (phase I/II), dose-escalation safety and tolerability study of CA4P. At that time, the patient's best corrected visual acuity was 20/50-3 in the left eye and 20/25-3 in the right eye, as determined by a Snellen back-lit visual acuity test. […] On Day One of the study, the patient began treatment with an intravenous infusion of CA4P (free acid), at a dose of 27 mg/m2, over a 10 minute period. […] The patient received second, third, and fourth infusions of CA4P on Days 8, 15, and 22 of the study, with a maintenance of visual acuity and no active leakage in either eye."}, "[3]": {"experiment": "Biodistribution of 14C-CA4P following sub-Tenon's injection", "assay_type": "in vivo, New Zealand rabbits", "experimental": "^14C-CA4P (OXiGENE Inc., Watertown, Mass.) was resuspended in 100 ul volume of saline solution and injected with a 30 G needle into the right eyes of anesthesized male New Zealand rabbits (4 months old, 1.8-2.5 kg, n=3 per sample). Three different concentrations of ^14C-CA4P were tested (1, 10, 100 mg/ml) corresponding to doses of 1, 5, and 5 uCi of applied radioactivity respectively. A blank control group was also included. Rabbits were anaesthetized at 1, 6, 24, and 48 hours for blood sampling. After blood collection, the animals were euthanized by Phenobarbital injection and the treated right eyes were removed from all test animals. Ocular tissue samples were dissected from the cornea, aqueous humor, vitreous humor, choroid, or retina, placed in 20-mi glass scintillation vials, vortexed, and incubated for 24 hrs with 500 ul digesting fluid. Plasma was separated from whole blood by centrifugation (1,800 g for 10 minutes). Both ocular tissue samples and plasma were incubated at room temperature with 16 ml of Hionic Fluor™ scintillation fluid for a period of 24 hours prior to radioactivity counting. Each sample was counted for 5 minutes in a Betamatic V counter (Bio-Tek Kontron Instruments, St Quentin en Yvelines, France). The conversion of counts per minute (“cpm”) into disintegrations per minute (“dpm”) was performed automatically by the beta-counter, using calibration curves obtained from ^14C-standards and quenching curves from the respective blank matrices spiked with ^14C-standards. The concentration of drug was determined according to nanogram equivalents of CA4P (ng-Eq/g of tissue) which was calculated from the measured dpm value, the weight of the tissue specimen, and the specific activity of the drug (0.37 mCi/mg), followed by subtraction of the corresponding background value from control eye tissue. A tissue concentration of 1 uM CA4P is equal to […] tissue."}, "[4]": {"experiment": "Primary ocular irritation, topical drops", "assay_type": "in vivo", "experimental": "The test article, CA4P, was evaluated for primary ocular irritation. A single 0.2 ml dose of CA4P dilution (0.1, 1.0, 10 and 100 mg/ml) was placed in the lower conjunctival sac of the left eye […]. The contralateral eye received buffered saline solution. Ocular reactions were evaluated at 24, 48 and 72 hours after the sample instillation."}},
  "data": [
    {"molecule": "COc1ccc(/C=C\\c2cc(OC)c(OC)c(OC)c2)cc1OP(=O)([O-])[O-].[Na+].[Na+]", "note": "[CA4P, combretastatin A4 disodium phosphate]", "values": [
      {"measurement": "Mean cell counts in the vitreous fluid (white blood cells)", "setting": "[1]; 0.1 mg/ml", "value": 9, "unit": "cells/mm^3"},
      {"measurement": "Irritation on slit-lamp and ophthalmoscope examination", "setting": "[1]; 1 mg/ml intravitreal, 2 rabbits", "value": "evidence of irritation was noted in one animal"},
      {"measurement": "Mean cell counts in the vitreous fluid (white blood cells)", "setting": "[1]; 1 mg/ml", "value": 962, "unit": "cells/mm^3"},
      {"measurement": "Mean cell counts in the vitreous fluid (white blood cells)", "setting": "[1]; 10 mg/ml", "value": 10, "unit": "cells/mg^3"},
      {"measurement": "Irritation and inflammation, ophthalmic exams and vitreous white blood cells", "setting": "[1]; 100 mg/ml intravitreal, both animals", "value": "pronounced irritation and inflammation"},
      {"measurement": "Mean cell counts in the vitreous fluid (white blood cells)", "setting": "[1]; 100 mg/ml", "value": 409, "unit": "cells/mm^3"},
      {"measurement": "Irritation (Draize Scores)", "setting": "[1]; Intravitreal, <1 mg", "value": "No Irritation"},
      {"measurement": "Irritation and inflammation, ophthalmic exams and vitreous white blood cells", "setting": "[1]; lower dose levels 0.1, 1.0 and 10 mg/ml intravitreal", "value": "no clear evidence of irritation or inflammation"},
      {"measurement": "Improvement of Snellen visual acuity, left eye", "setting": "[2]; 27 mg/m2 i.v. weekly", "value": "improved by five lines to 20/20 vision"},
      {"measurement": "Leakage in fluorescein angiography of either eye", "setting": "[2]; Day 8 after 27 mg/m2 i.v. infusion, active leakage in both eyes at baseline", "value": "No active leakage was observed"},
      {"measurement": "Cmax", "setting": "[3]; aqueous humor, 1 mg/ml sub-Tenon's", "value": 300, "unit": "nM"},
      {"measurement": "Cmax", "setting": "[3]; aqueous humor, 10 mg/ml sub-Tenon's", "value": 1800, "unit": "nM"},
      {"measurement": "Cmax", "setting": "[3]; aqueous humor, 100 mg/ml sub-Tenon's", "value": 5920, "unit": "nM"},
      {"measurement": "Cmax", "setting": "[3]; choroid, 1 mg/ml sub-Tenon's", "value": 1200, "unit": "nM"},
      {"measurement": "Cmax", "setting": "[3]; choroid, 10 mg/ml sub-Tenon's", "value": 6200, "unit": "nM"},
      {"measurement": "Cmax", "setting": "[3]; choroid, 100 mg/ml sub-Tenon's", "value": 861000, "unit": "nM"},
      {"measurement": "Cmax", "setting": "[3]; plasma, 1 mg/ml sub-Tenon's", "value": 70, "unit": "nM"},
      {"measurement": "Cmax", "setting": "[3]; plasma, 10 mg/ml sub-Tenon's", "value": 490, "unit": "nM"},
      {"measurement": "Cmax", "setting": "[3]; plasma, 100 mg/ml sub-Tenon's", "value": 9300, "unit": "nM"},
      {"measurement": "Concentration of drug delivered", "setting": "[3]; retina and choroid, 100 and 10 mg/ml, sub-Tenon's", "value": "> 1000", "unit": "nM"},
      {"measurement": "Cmax", "setting": "[3]; retina, 1 mg/ml sub-Tenon's", "value": 850, "unit": "nM"},
      {"measurement": "Cmax", "setting": "[3]; retina, 10 mg/ml sub-Tenon's", "value": 7100, "unit": "nM"},
      {"measurement": "Cmax", "setting": "[3]; retina, 100 mg/ml sub-Tenon's", "value": 171000, "unit": "nM"},
      {"measurement": "Time of highest concentrations of drug in the eye", "setting": "[3]; sub-Tenon's injection", "value": "within the first hour"},
      {"measurement": "Cmax", "setting": "[3]; vitreous, 1 mg/ml sub-Tenon's", "value": 19, "unit": "nM"},
      {"measurement": "Cmax", "setting": "[3]; vitreous, 10 mg/ml sub-Tenon's", "value": 130, "unit": "nM"},
      {"measurement": "Cmax", "setting": "[3]; vitreous, 100 mg/ml sub-Tenon's", "value": 3900, "unit": "nM"},
      {"measurement": "Irritation (Draize Scores)", "setting": "[4]; Topical, 0-10 mg", "value": "No Irritation"},
      {"measurement": "Macroscopic ocular reaction vs control", "setting": "[4]; all dilutions 0.1-100 mg/ml, single 0.2 ml topical dose, 24-72 h", "value": "insignificant"},
      {"measurement": "Microscopic ocular irritation vs buffered saline", "setting": "[4]; topical drops 0.1-100 mg/ml", "value": "not considered an irritant"}
    ]}
  ]
}
